Experiments:
[1] = biological target: GDP-bound NRAS wild-type protein (Homo sapiens, UniProt P01111); experiment: Binding to NRAS by surface plasmon resonance (SPR), Single Cycle Kinetics; details: KD ratio NRAS/KRAS, SPR
[2] = biological target: GDP-bound HRAS wild-type protein (Homo sapiens, UniProt P01112); experiment: Binding to HRAS by surface plasmon resonance (SPR), Single Cycle Kinetics; details: KD ratio HRAS/KRAS, SPR
GDP-bound HRAS wild-type protein, sequence (P01112 whole entry): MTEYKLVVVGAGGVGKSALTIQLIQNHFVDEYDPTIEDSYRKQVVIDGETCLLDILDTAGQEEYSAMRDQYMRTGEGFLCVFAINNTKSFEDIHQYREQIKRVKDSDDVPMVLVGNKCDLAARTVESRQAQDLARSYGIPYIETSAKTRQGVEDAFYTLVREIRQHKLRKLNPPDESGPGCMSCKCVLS

GDP-bound NRAS wild-type protein, sequence (P01111 whole entry): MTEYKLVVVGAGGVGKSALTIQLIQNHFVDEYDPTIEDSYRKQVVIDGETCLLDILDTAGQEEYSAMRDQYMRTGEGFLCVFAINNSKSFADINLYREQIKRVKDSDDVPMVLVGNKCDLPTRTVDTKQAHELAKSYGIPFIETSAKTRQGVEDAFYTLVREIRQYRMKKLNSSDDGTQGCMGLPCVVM

SMILES | NRAS/KRAS (ratio of KD value with respect to GDP-bound NRAS wild-type protein to KD value with respect to KRAS) [1] | HRAS/KRAS (ratio of KD value with respect to GDP-bound HRAS wild-type protein to KD value with respect to KRAS) [2]
CC[C@H](C)[C@@H]1NC(=O)[C@H](C)N(C)C(=O)C[C@@H](C(=O)N(C)C)N(C)C(=O)[C@H](C2CCCC2)N(C)C(=O)C2(CCC2)NC(=O)[C@@H]2CC(F)(F)CN2C(=O)[C@H](CCc2cc(F)c(C(F)(F)F)c(F)c2)NC(=O)CN(C)C(=O)[C@H](Cc2ccc(C(F)(F)F)cc2)N2CCCCC[C@@H](C2=O)N(C)C(=O)CN(C)C1=O [PP0473] | C (A compound having a KD ratio of 0.1 or more and less than 3 is denoted as C) | C (A compound having a KD ratio of 0.1 or more and less than 3 is denoted as C)
CCO[C@@H]1C[C@H]2C(=O)NC3(CCC3)C(=O)N(C)[C@@H](C3CCCC3)C(=O)N(C)[C@H](C(=O)N3CCOCC3)CC(=O)N(C)[C@@H](C)C(=O)N[C@@H]([C@@H](C)CC)C(=O)N(C)CC(=O)N(C)[C@H]3CCCCCN(C3=O)[C@@H](Cc3ccc(C(F)(F)F)cc3)C(=O)N(C)CC(=O)N[C@@H](CCc3cc(F)c(C(F)(F)F)c(F)c3)C(=O)N2C1 [PP0474] | B (a compound having 3 or more and less than 10 is denoted as B) | B (a compound having 3 or more and less than 10 is denoted as B)
CCO[C@@H]1C[C@H]2C(=O)NC3(CCCC3)C(=O)N(C)[C@@H](C3CCCC3)C(=O)N(C)[C@H](C(=O)N(C)C)CC(=O)N(C)[C@@H](C)C(=O)N[C@@H]([C@@H](C)CC)C(=O)N(C)CC(=O)N(C)[C@H]3CCCCCN(C3=O)[C@@H](Cc3ccc(C(F)(F)F)cc3)C(=O)N(C)CC(=O)N[C@@H](CCc3cc(F)c(C(F)(F)F)c(F)c3)C(=O)N2C1 [PP0475] | B (a compound having 3 or more and less than 10 is denoted as B) | B (a compound having 3 or more and less than 10 is denoted as B)
CCO[C@@H]1C[C@H]2C(=O)NC3(CCC3)C(=O)N(C)[C@@H](C3CCCC3)C(=O)N(C)[C@H](C(=O)N(C)C)CC(=O)N(C)[C@@H](C)C(=O)N[C@@H]([C@@H](C)CC)C(=O)N(C)CC(=O)N(C)[C@H]3CCCCCN(C3=O)[C@@H](Cc3ccc(C(F)(F)F)cc3)C(=O)N(C)CC(=O)N[C@@H](CCc3cc(F)c(C(F)(F)F)c(F)c3)C(=O)N2C1 [PP0476] | B (a compound having 3 or more and less than 10 is denoted as B) | B (a compound having 3 or more and less than 10 is denoted as B)
CC[C@H](C)[C@@H]1NC(=O)[C@H](CC(C)C)N(C)C(=O)C[C@@H](C(=O)N2CCOCC2)N(CC)C(=O)[C@H](C2CCCC2)N(C)C(=O)C2(CCCC2)NC(=O)[C@@H]2CCCN2C(=O)[C@H](CCc2cc(F)c(C(F)(F)F)c(F)c2)NC(=O)CN(C)C(=O)[C@H](Cc2ccc(C(F)(F)F)cc2)N2CCCCC[C@@H](C2=O)N(C)C(=O)CN(C)C1=O [PP0477] | A (a compound having 10 or more and less than 20 is denoted as A) | A (a compound having 10 or more and less than 20 is denoted as A)
CC[C@H](C)[C@@H]1NC(=O)[C@H](CC(C)C)N(C)C(=O)C[C@@H](C(=O)N2CCOCC2)NC(=O)[C@H](C2CCCC2)N(C)C(=O)C2(CCCC2)NC(=O)[C@@H]2CCCN2C(=O)[C@H](CCc2cc(F)c(C(F)(F)F)c(F)c2)NC(=O)CN(C)C(=O)[C@H](Cc2ccc(C(F)(F)F)cc2)N2CCCCC[C@@H](C2=O)N(C)C(=O)CN(C)C1=O [PP0479] | B (a compound having 3 or more and less than 10 is denoted as B) | B (a compound having 3 or more and less than 10 is denoted as B)
CC[C@H](C)[C@@H]1NC(=O)[C@H](CC(C)C)N(C)C(=O)C[C@@H](C(=O)N2CCOCC2)N(C)C(=O)[C@H](C2CCCC2)N(C)C(=O)C2(CCCC2)NC(=O)[C@@H]2CCCN2C(=O)[C@H](CCc2cc(F)c(C(F)(F)F)c(F)c2)NC(=O)CN(C)C(=O)[C@H](Cc2ccc(C(F)(F)F)cc2)N2CCCCC[C@@H](C2=O)N(C)C(=O)[C@H](C)NC1=O [PP0481] | B (a compound having 3 or more and less than 10 is denoted as B) | B (a compound having 3 or more and less than 10 is denoted as B)
CC[C@H](C)[C@@H]1NC(=O)[C@H](CC(C)C)N(C)C(=O)C[C@@H](C(=O)N2CCOCC2)N(C)C(=O)[C@H](C2CCCC2)N(C)C(=O)C2(CCCC2)NC(=O)[C@@H]2CCCN2C(=O)[C@H](CCc2cc(F)c(C(F)(F)F)c(F)c2)NC(=O)CN(C)C(=O)[C@H](Cc2ccc(C(F)(F)F)cc2)N2CCCCC[C@@H](C2=O)N(C)C(=O)CN(CC)C1=O [PP0483] | B (a compound having 3 or more and less than 10 is denoted as B) | B (a compound having 3 or more and less than 10 is denoted as B)
CC[C@H](C)[C@@H]1NC(=O)[C@H](CC(C)C)N(C)C(=O)C[C@@H](C(=O)N2CCOCC2)N(C)C(=O)[C@H](C2CCCC2)N(C)C(=O)C2(CCCC2)NC(=O)[C@@H]2CCCN2C(=O)[C@H](CCc2cc(F)c(C(F)(F)F)c(F)c2)NC(=O)CN(C)C(=O)[C@H](Cc2ccc(C(F)(F)F)cc2)N2CCCCC[C@@H](C2=O)N(C)C(=O)[C@@H]2CCN2C1=O [PP0484] | A (a compound having 10 or more and less than 20 is denoted as A) | B (a compound having 3 or more and less than 10 is denoted as B)
CC[C@H](C)[C@@H]1NC(=O)[C@H](CC(C)C)N(C)C(=O)C[C@@H](C(=O)N2CCOCC2)N(C)C(=O)[C@H](C2CCCC2)N(C)C(=O)C2(CCCC2)NC(=O)[C@@H]2CCCN2C(=O)[C@H](CCc2cc(F)c(C(F)(F)F)c(F)c2)NC(=O)CN(C)C(=O)[C@H](Cc2ccc(C(F)(F)F)cc2)N2CCCCC[C@@H](C2=O)N(C)C(=O)[C@@H]2CCCN2C1=O [PP0485] | A (a compound having 10 or more and less than 20 is denoted as A) | B (a compound having 3 or more and less than 10 is denoted as B)
CC[C@H](C)[C@@H]1NC(=O)[C@H](C)N(C)C(=O)C[C@@H](C(=O)N2CCOCC2)N(C)C(=O)[C@H](C2CCCC2)N(C)C(=O)C2(CCCC2)NC(=O)[C@@H]2CCCN2C(=O)[C@H](CCc2cc(F)c(C(F)(F)F)c(F)c2)NC(=O)CN(C)C(=O)[C@H](Cc2ccc(C(F)(F)F)cc2)N2CCCCC[C@@H](C2=O)N(C)C(=O)CN(C)C1=O [PP0487] | B (a compound having 3 or more and less than 10 is denoted as B) | B (a compound having 3 or more and less than 10 is denoted as B)
